Experimental findings from patent US20030157516A1, “G protein coupled receptor” (priority 2000, published 2003) are described below.

Read-outs that look alike come from different tables or passages of the source.

One may read the pEC50 as −log10 of the EC50, conventionally taken in molar units. Read a low pEC50 as a large EC50.

In assay [1] the test system is wild type CHO cells. Nature of the assay: [35S]GTPγS binding on wild type CHO membranes. Type of assay: biochemical. As for the experimental part: a) Methods—Determination of [^35S ]GTPγS binding to the G-proteins was carried out according to a modified procedure of Lazareno (Methods Mol. Biol., 83:107-116, 1997). These experiments were performed for a first functional evaluation of the receptor on the level of a membrane preparation. […] For testing agonistic activity, 175 μl of diluted membranes was pre-incubated in the buffer described above together with 25 μl of buffer and 25 μl of varying concentrations of the compound in a total volume of 225 μl. After a 20 minute pre-incubation period at 30° C., 25 μl of [^35S]GTPγS was added to a final concentration of 0.25 nM and the assay mixtures were further incubated for 20 minutes at 30° C. […] The amount of bound radioactivity on the filter unit was determined after drying of the filters and scintillant addition (Microscint-O; Packard Company) by liquid scintillation counting. Basal [^35S]GTPγS binding was measured in absence of compounds. Stimulation by agonist was calculated as the percentage increase above basal levels. The sigmoid agonist concentration-response curves were analyzed by non-linear regression using the GraphPad Prism program. The different concentration points were run in duplicates and the reported data were retrieved from independent experiments.

Assay [2] concerns the target T1, adenine binding rat receptor (Rattus norvegicus, UniProt Q7TN49).
T1 construct: expressed in transfected cells; host or cells: CHO cells, transient, lipofectamine PLUS
T1 sequence (Q7TN49 1-304): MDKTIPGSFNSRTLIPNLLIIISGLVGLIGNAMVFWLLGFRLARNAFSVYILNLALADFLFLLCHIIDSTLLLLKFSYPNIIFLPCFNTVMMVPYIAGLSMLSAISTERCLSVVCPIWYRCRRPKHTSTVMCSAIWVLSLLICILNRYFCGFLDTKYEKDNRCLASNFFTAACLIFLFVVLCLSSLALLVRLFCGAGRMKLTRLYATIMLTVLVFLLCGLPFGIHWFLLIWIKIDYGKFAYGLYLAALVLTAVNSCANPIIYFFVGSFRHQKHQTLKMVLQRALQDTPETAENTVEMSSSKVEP
In words: cAMP measurements on CHO cells transiently transfected (forskolin stimulated). Type of assay: cell-based. Conditions: inhibition of forskolin stimulated cAMP. As to the method: a) Methods—For transiently transfected CHO cells, cAMP measurements were performed using the direct RIA kit from NEN (Belgium).
The cells were collected from 50 mm petri dishes by adding 1 ml 0.04% EDTA and re-suspending them in PBS (without Ca^2+ and Mg^2+). The cells were then centrifuged for 5 minutes at 1,500 RPM, the supernatant was removed and the pellet was re-suspended in stimulation buffer (provided by the supplier, NEN). The cells were counted and 50 μl was added to each well of a 96-well flashplate at a density of 10^6 cells/well. A standard curve of cAMP was prepared in stimulation buffer, covering a range from 10 to 1,000 nM, and 50 μl was added to the flashplate.
The compounds were diluted in PBS with forskolin (at 50 μM), and 50 μl of the ligand, 2 times the final concentration, was added to the cells and incubated for 20 minutes at 37° C. After the 20 minutes incubation, 100 μl of the [^125I]cAMP tracer (2 μCi) was added to each well, resulting in a final volume of 200 μl/well. The plate was left at room temperature, until being counted in the Topcount™ microplate scintillation counter (Packard, Netherlands). The sigmoid concentration response curves (duplicate points) were analyzed using the GraphPad Prism program (GraphPad Software, Calif., USA).
a) Methods: Two days before the experiment the cells were seeded out in a 96 well plate at a density required for approximately 90% confluence at the day of the experiment. After removal of the growth medium, the cells were washed twice with a controlled salt solution (CSS) containing 25 mM Tris-HCl, pH 7.4, 120 mM NaCl, 5.4 mM KCl, 0.8 mM MgCl2, 1.8 mM CaCl2, 15 mM glucose and 15 mg/l phenol red, with an addition of a phosphodiesterase inhibitor IBMX (3-isobutyl-1-methylxanthine) in a concentration of 1 mM and […]. Basal cAMP levels were determined in CSS containing these additives and maximally stimulated cAMP levels were determined in the presence of 50 μM forskolin. For testing agonistic activity, the compounds were incubated with the cells for 20 minutes at 37° C. The reaction was stopped by addition of ice cold HClO4 (1N) and stored at −20° C. After thawing the mixtures were neutralized with an equivalent amount of phosphate buffered KOH, left at 4° C. during 30 minutes to allow the salts to precipitate and centrifuged at 2,000 RPM for 5 minutes at 4° C.
For the quantitative determination of the cAMP levels, a 96-well Flashplate radioimmunoassay kit from NEN was used, according to the protocol of the supplier. The sigmoid concentration response curves (duplicate points) were analyzed using the GraphPad Prism program.

Where [3] appears, read: direct assay, 0.5% hiFCS, read-out: pEC50 (converted).
The mark [4] stands for this setting: direct assay, 2% hiFCS, read-out: pEC50 (converted).
Setting [5] is: indirect assay, 0.5% hiFCS, read-out: pEC50 (converted).

Consider `Nc1ncnc2c1ncn2[C@@H]1O[C@H](COP(=O)(O)O)[C@@H](O)[C@H]1O` [AMP], for which the “% stim.” value in assay [1] (mean of n experiments) and in assay [1] (single experiments) was 0% in each case. Further, the pEC50 in assay [1] (single experiments) is on record as under 4.
In the case of `Cn1cnc2ncnc-2c1N` [1-Methyladenine], the “% stim.” value in assay [1] (mean of n experiments) and in assay [1] (single experiments) was 0% each time. In addition, the pEC50 in assay [1] (single experiments) is recorded as under 4; in assay [2] (indirect assay, 2% hiFCS), “no fit”. The EC50 in assay [2] (setting [3]) was 4.9 µM; in assay [2] (setting [4]), 6.31 µM; in assay [2] (setting [5]), 7.94 µM.
With `Nc1ncnc2nc[nH]c12` [Adenine, adenine], the “% stim.” value in assay [1] (mean of n experiments) and in assay [1] (single experiments) was 0% in each case. The compound further displayed a pEC50 in assay [1] (single experiments) of under 5. Also, the EC50 was 0.0209 µM in assay [2] (setting [3]); 0.00708 µM in assay [2] (setting [4]); 0.00331 µM in assay [2] (setting [5]); 0.11 µM in assay [2] (indirect assay, 2% hiFCS, read-out: pEC50 (converted)); about 0.015 µM in assay [2] (transiently transfected cells, read-out: EC50).
